Row | melting point [°C] | Compound
1 | 251 to 252 | Cc1cc(-c2cccc(C3=Nc4cc(F)c(C(F)(F)F)cc4NC(=O)C3)c2)cc(C)n1 [Example 240, 4-[3-(2,6-Dimethyl-pyridin-4-yl)-phenyl]-7-fluoro-8-trifluoromethyl-1,3-dihydro-benzo[b][1,4]diazepin-2-one]
2 | 225 to 226 | C=Cc1cc2c(cc1C(F)(F)F)NC(=O)CC(c1cccc(-c3cc(C)nc(C)c3)c1)=N2 [Example 241, 4-[3-(2,6-Dimethyl-pyridin-4-yl)-phenyl]-8-trifluoromethyl-7-vinyl-1,3-dihydro-benzo[b][1,4]diazepin-2-one]
3 | 198 to 199 | COCCOc1cc2c(cc1C(F)(F)F)NC(=O)CC(c1cccc(-c3ccnc(C)c3)c1)=N2 [Example 242, 7-(2-Methoxy-ethoxy)-4-[3-(2-methyl-pyridin-4-yl)-phenyl]-8-trifluoromethyl-1,3-dihydro-benzo[b][1,4]diazepin-2-one]
4 | 213 to 214 | COCCOc1cc2c(cc1C(F)(F)F)NC(=O)CC(c1cccc(-c3cc(C)nc(C)c3)c1)=N2 [Example 243, 4-[3-(2,6-Dimethyl-pyridin-4-yl)-phenyl]-7-(2-methoxy-ethoxy)-8-trifluoromethyl-1,3-dihydro-benzo[b][1,4]diazepin-2-one]
5 | 200 to 201 | C=Cc1cc2c(cc1C(F)(F)F)NC(=O)CC(c1cccc(-c3ccnc(C)c3)c1)=N2 [Example 244, 4-[3-(2-Methyl-pyridin-4-yl)-phenyl]-8-trifluoromethyl-7-vinyl-1,3-dihydro-benzo[b][1,4]diazepin-2-one]
6 | 218 to 219 | Cc1cc(C)c(-c2cccc(C3=Nc4cc(C)c(C(F)(F)F)cc4NC(=O)C3)c2)cn1 [Example 245, 4-[3-(4,6-Dimethyl-pyridin-3-yl)-phenyl]-7-methyl-8-trifluoromethyl-1,3-dihydro-benzo[b][1,4]diazepin-2-one]
7 | 202 | CCOc1cc2c(cc1C(F)(F)F)NC(=O)CC(c1cccc(-c3cnc(C4CC4)cc3C)c1)=N2 [Example 247, 4-[3-(6-Cyclopropyl-4-methyl-pyridin-3-yl)-phenyl]-7-ethoxy-8-trifluoromethyl-1,3-dihydro-benzo[b][1,4]diazepin-2-one]
8 | 206 | Cc1cc(C2CC2)ncc1-c1cccc(C2=Nc3cc(OCC(F)(F)F)c(C(F)(F)F)cc3NC(=O)C2)c1 [Example 248, 4-[3-(6-Cyclopropyl-4-methyl-pyridin-3-yl)-phenyl]-7-(2,2,2-trifluoro-ethoxy)-8-trifluoromethyl-1,3-dihydro-benzo[b][1,4]diazepin-2-one]
9 | 215 | CCOc1cc2c(cc1C(F)(F)F)NC(=O)CC(c1cccc(-c3cc(C)nc(CC)c3)c1)=N2 [Example 250, 7-Ethoxy-4-[3-(2-ethyl-6-methyl-pyridin-4-yl)-phenyl]-8-trifluoromethyl-1,3-dihydro-benzo[b][1,4]diazepin-2-one]
10 | 209 | CCc1cc(-c2cccc(C3=Nc4cc(OCC(F)(F)F)c(C(F)(F)F)cc4NC(=O)C3)c2)cc(C)n1 [Example 251, 4-[3-(2-Ethyl-6-methyl-pyridin-4-yl)-phenyl]-7-(2,2,2-trifluoro-ethoxy)-8-trifluoromethyl-1,3-dihydro-benzo[b][1,4]diazepin-2-one]
11 | 226 to 228 | CCOc1cc2c(cc1C(F)(F)F)NC(=O)CC(c1cccc(-c3cnc(C)cc3C)c1)=N2 [Example 252, 4-[3-(4,6-Dimethyl-pyridin-3-yl)-phenyl]-7-ethoxy-8-trifluoromethyl-1,3-dihydro-benzo[b][1,4]diazepin-2-one]
12 | 176 to 180 | Cc1cc(C)c(-c2cccc(C3=Nc4cc(OCC(F)(F)F)c(C(F)(F)F)cc4NC(=O)C3)c2)cn1 [Example 253, 4-[3-(4,6-Dimethyl-pyridin-3-yl)-phenyl]-7-(2,2,2-trifluoro-ethoxy)-8-trifluoromethyl-1,3-dihydro-benzo[b][1,4]diazepin-2-one]
13 | 200 | CCc1cc(C)c(-c2cccc(C3=Nc4cc(C)c(C(F)(F)F)cc4NC(=O)C3)c2)cn1 [Example 254, 4-[3-(6-Ethyl-4-methyl-pyridin-3-yl)-phenyl]-7-methyl-8-trifluoromethyl-1,3-dihydro-benzo[b][1,4]diazepin-2-one]
14 | 205 | CCOc1cc2c(cc1C(F)(F)F)NC(=O)CC(c1cccc(-c3cnc(CC)cc3C)c1)=N2 [Example 255, 7-Ethoxy-4-[3-(6-ethyl-4-methyl-pyridin-3-yl)-phenyl]-8-trifluoromethyl-1,3-dihydro-benzo[b][1,4]diazepin-2-one]
15 | 145 to 160 | CCc1cc(C)c(-c2cccc(C3=Nc4cc(OCC(F)(F)F)c(C(F)(F)F)cc4NC(=O)C3)c2)cn1 [Example 256, 4-[3-(6-Ethyl-4-methyl-pyridin-3-yl)-phenyl]-7-(2,2,2-trifluoro-ethoxy)-8-trifluoromethyl-1,3-dihydro-benzo[b][1,4]diazepin-2-one]
16 | 257 | Cc1cc(-c2cccc(C3=Nc4cc(C)c(C(F)(F)F)cc4NC(=O)C3)c2)cc(C2CC2)n1 [Example 257, 4-[3-(2-Cyclopropyl-6-methyl-pyridin-4-yl)-phenyl]-7-methyl-8-trifluoromethyl-1,3-dihydro-benzo[b][1,4]diazepin-2-one]

Row | melting point [°C] | Compound
17 | 232 | CCOc1cc2c(cc1C(F)(F)F)NC(=O)CC(c1cccc(-c3cc(C)nc(C4CC4)c3)c1)=N2 [Example 258, 4-[3-(2-Cyclopropyl-6-methyl-pyridin-4-yl)-phenyl]-7-ethoxy-8-trifluoromethyl-1,3-dihydro-benzo[b][1,4]diazepin-2-one]
18 | 200 | Cc1cc(-c2cccc(C3=Nc4cc(OCC(F)(F)F)c(C(F)(F)F)cc4NC(=O)C3)c2)cc(C2CC2)n1 [Example 259, 4-[3-(2-Cyclopropyl-6-methyl-pyridin-4-yl)-phenyl]-7-(2,2,2-trifluoro-ethoxy)-8-trifluoromethyl-1,3-dihydro-benzo[b][1,4]diazepin-2-one]
19 | 246 | Cc1cc2c(cc1C(F)(F)F)NC(=O)CC(c1cccc(-c3cccnc3C)c1)=N2 [Example 260, 7-Methyl-4-[3-(2-methyl-pyridin-3-yl)-phenyl]-8-trifluoromethyl-1,3-dihydro-benzo[b][1,4]diazepin-2-one]
20 | 218 | Cc1cc(-c2cccc(C3=Nc4cc(CO)c(C(F)(F)F)cc4NC(=O)C3)c2)ccn1 [Example 261, 7-Hydroxymethyl-4-[3-(2-methyl-pyridin-4-yl)-phenyl]-8-trifluoromethyl-1,3-dihydro-benzo[b][1,4]diazepin-2-one]
21 | 209 | Cc1cc2c(cc1C(F)(F)F)NC(=O)CC(c1cccc(-c3ccnc(CC(C)C)c3)c1)=N2 [Example 262, 4-[3-(2-Isobutyl-pyridin-4-yl)-phenyl]-7-methyl-8-trifluoromethyl-1,3-dihydro benzo[b][1,4]diazepin-2-one]
22 | 247 | Cc1cc2c(cc1Cl)NC(=O)CC(c1cccc(-c3ccnc(C(F)(F)F)c3)c1)=N2 [Example 264, 8-Chloro-7-methyl-4-[3-(2-trifluoromethyl-pyridin-4-yl)-phenyl]-1,3-dihydro-benzo[b][1,4]diazepin-2-one]
23 | 247 | Cc1cc2c(cc1C(F)(F)F)NC(=O)CC(c1cccc(-c3ccnc(C(F)(F)F)c3)c1)=N2 [Example 265, 7-Methyl-8-trifluoromethyl-4-[3-(2-trifluoromethyl-pyridin-4-yl)-phenyl]-1,3-dihydro-benzo[b][1,4]diazepin-2-one]
24 | 229 | O=C1CC(c2cccc(-c3ccnc(C(F)(F)F)c3)c2)=Nc2cc(Cl)c(C(F)(F)F)cc2N1 [Example 266, 7-Chloro-8-trifluoromethyl-4-[3-(2-trifluoromethyl-pyridin-4-yl)-phenyl]-1,3-dihydro-benzo[b][1,4]diazepin-2-one]
25 | 226 | O=C1CC(c2cccc(-c3ccnc(C(F)(F)F)c3)c2)=Nc2cc(Cl)c(Cl)cc2N1 [Example 267, 7,8-Dichloro-4-[3-(2-trifluoromethyl-pyridin-4-yl)-phenyl]-1,3-dihydro-benzo[b][1,4]diazepin-2-one]
26 | 220 | O=C1CC(c2cccc(-c3ccnc(C(F)(F)F)c3)c2)=Nc2cc(OCC(F)(F)F)c(C(F)(F)F)cc2N1 [Example 268, 7-(2,2,2-Trifluoro-ethoxy)-8-trifluoromethyl-4-[3-(2-trifluoromethyl-pyridin-4-yl)-phenyl]-1,3-dihydro-benzo[b][1,4]diazepin-2-one]
27 | 251 | CCOc1cc2c(cc1C(F)(F)F)NC(=O)CC(c1cccc(-c3ccnc(C(F)(F)F)c3)c1)=N2 [Example 269, 7-Ethoxy-8-trifluoromethyl-4-[3-(2-trifluoromethyl-pyridin-4-yl)-phenyl]-1,3-dihydro-benzo[b][1,4]diazepin-2-one]
28 | 196 | Cc1cc2c(cc1Cl)NC(=O)CC(c1cccc(-c3ccnc(C(C)C)c3)c1)=N2 [Example 270, 8-Chloro-4-[3-(2-isopropyl-pyridin-4-yl)-phenyl]-7-methyl-1,3-dihydro-benzo[b][1,4]diazepin-2-one]
29 | 205 | Cc1cc2c(cc1C(F)(F)F)NC(=O)CC(c1cccc(-c3ccnc(C(C)C)c3)c1)=N2 [Example 271, 4-[3-(2-Isopropyl-pyridin-4-yl)-phenyl]-7-methyl-8-trifluoromethyl-1,3-dihydro benzo[b][1,4]diazepin-2-one]
30 | 168 | CC(C)c1cc(-c2cccc(C3=Nc4ccc(C(F)(F)F)cc4NC(=O)C3)c2)ccn1 [Example 272, 4-[3-(2-Isopropyl-pyridin-4-yl)-phenyl]-8-trifluoromethyl-1,3-dihydro benzo[b][1,4]diazepin-2-one]
31 | 200 | CC(C)c1cc(-c2cccc(C3=Nc4cc(Cl)c(C(F)(F)F)cc4NC(=O)C3)c2)ccn1 [Example 273, 7-Chloro-4-[3-(2-isopropyl-pyridin-4-yl)-phenyl]-8-trifluoromethyl-1,3-dihydro benzo[b][1,4]diazepin-2-one]
32 | 195 | CC(C)c1cc(-c2cccc(C3=Nc4cc(Cl)c(Cl)cc4NC(=O)C3)c2)ccn1 [Example 274, 7,8-Dichloro-4-[3-(2-isopropyl-pyridin-4-yl)-phenyl]-1,3-dihydro-benzo[b][1,4]diazepin-2-one]

Source: patent publication US6949542B2, “Dihydro-benzo[b][1,4]diazepin-2-one derivatives” (Hoffman-La Roche Inc., priority 2002, dated 2005)
